# From patent US20230085307A1, “PYRIDAZINONE COMPOUND AND HERBICIDE” (NISSAN CHEMICAL CORPORATION, priority 2019, published 2023)
# How the values were obtained:
# Chinese sprangletop = experiment: Test Example 3: herbicidal effect by foliage application, Wagner pot (Table 18, symbol D); type: in vivo, chinese sprangletop (Leptochloa chinensis); conditions: 320 g/ha
# In short: (§1)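 Plants were sown in alluvial soil held under 0.1–0.5 cm standing water and grown 14 days in a greenhouse at 25–30 °C. An emulsifiable formulation, water-diluted to the set dose, was then sprayed onto the foliage, and effects were scored three weeks later using previously defined criteria.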
# redroot pigweed = experiment: Test Example 5: herbicidal effect by foliage application, plastic box (Table 20, symbol N); type: in vivo, redroot pigweed (Amaranthus retroflexus); conditions: foliage application after 14-day growth, evaluated three weeks after application; for Herbicidal effect by foliage application, N: redroot pigweed: amount of applied herbicide 320 g/ha
# In short: (§2)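 Post-emergence foliar test in sterilized diluvial soil. Compound applied as water-diluted emulsion at a predetermined rate to 14-day-old plants; evaluation at three weeks.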
# persian speedwell = experiment: Test Example 5: herbicidal effect by foliage application, plastic box (Table 20, symbol R); type: in vivo, Persian speedwell (Veronica persica); conditions: foliage application after 14-day growth, evaluated three weeks after application; for Herbicidal effect by foliage application, R: persian speedwell: amount of applied herbicide 320 g/ha
# In short: as §2
# lambsquarters = experiment: Test Example 5: herbicidal effect by foliage application, plastic box (Table 20, symbol O); type: in vivo, lambsquarters (Chenopodium album); conditions: foliage application after 14-day growth, evaluated three weeks after application; for Herbicidal effect by foliage application, O: lambsquarters: amount of applied herbicide 320 g/ha
# In short: as §2
# southern crabgrass = experiment: Test Example 5: herbicidal effect by foliage application, plastic box (Table 20, symbol F); type: in vivo, southern crabgrass (Digitaria ciliaris); conditions: foliage application after 14-day growth, evaluated three weeks after application; for Herbicidal effect by foliage application, F: southern crabgrass: amount of applied herbicide 320 g/ha
# In short: as §2
# green foxtail = experiment: Test Example 5: herbicidal effect by foliage application, plastic box (Table 20, symbol G); type: in vivo, green foxtail (Setaria viridis); conditions: foliage application after 14-day growth, evaluated three weeks after application; for Herbicidal effect by foliage application, G: green foxtail: amount of applied herbicide 320 g/ha
# In short: as §2
# barnyard grass [1] = experiment: Test Example 5: herbicidal effect by foliage application, plastic box (Table 20, symbol H); type: in vivo, barnyard grass (Echinochloa crus-galli); conditions: foliage application after 14-day growth, evaluated three weeks after application; for Herbicidal effect by foliage application, H: barnyard grass: amount of applied herbicide 320 g/ha
# In short: as §2
# wild oat = experiment: Test Example 5: herbicidal effect by foliage application, plastic box (Table 20, symbol I); type: in vivo, wild oat (Avena fatua); conditions: foliage application after 14-day growth, evaluated three weeks after application; for Herbicidal effect by foliage application, I: wild oat: amount of applied herbicide 320 g/ha
# In short: as §2
# windgrass = experiment: Test Example 5: herbicidal effect by foliage application, plastic box (Table 20, symbol L); type: in vivo, windgrass (Apera spica-venti); conditions: foliage application after 14-day growth, evaluated three weeks after application; for Herbicidal effect by foliage application, L: windgrass: amount of applied herbicide 320 g/ha
# In short: as §2
# velvetleaf = experiment: Test Example 5: herbicidal effect by foliage application, plastic box (Table 20, symbol M); type: in vivo, velvetleaf (Abutilon theophrasti); conditions: foliage application after 14-day growth, evaluated three weeks after application; for Herbicidal effect by foliage application, M: velvetleaf: amount of applied herbicide 320 g/ha
# In short: as §2
# blackgrass = experiment: Test Example 5: herbicidal effect by foliage application, plastic box (Table 20, symbol J); type: in vivo, blackgrass (Alopecurus myosuroides); conditions: foliage application after 14-day growth, evaluated three weeks after application; for Herbicidal effect by foliage application, J: blackgrass: amount of applied herbicide 320 g/ha
# In short: as §2
# chickweed = experiment: Test Example 5: herbicidal effect by foliage application, plastic box (Table 20, symbol P); type: in vivo, common chickweed (Stellaria media); conditions: foliage application after 14-day growth, evaluated three weeks after application; for Herbicidal effect by foliage application, P: chickweed: amount of applied herbicide 320 g/ha
# In short: as §2
# barnyard grass [2] = experiment: Test Example 3: herbicidal effect by foliage application, Wagner pot (Table 18, symbol H); type: in vivo, barnyard grass (Echinochloa crus-galli); conditions: 320 g/ha
# In short: as §1
# rice flat sedge = experiment: Test Example 3: herbicidal effect by foliage application, Wagner pot (Table 18, symbol E); type: in vivo, rice flat sedge (Cyperus iria); conditions: 320 g/ha
# In short: as §1
# Italian ryegrass = experiment: Test Example 5: herbicidal effect by foliage application, plastic box (Table 20, symbol K); type: in vivo, Italian ryegrass (Lolium multiflorum); conditions: foliage application after 14-day growth, evaluated three weeks after application; for Herbicidal effect by foliage application, K: Italian ryegrass: amount of applied herbicide 320 g/ha
# In short: as §2
SMILES,herbicidal effect on Chinese sprangletop (D) (Chinese sprangletop),herbicidal effect on barnyard grass (H) (barnyard grass [2]),herbicidal effect on rice flat sedge (E) (rice flat sedge),"Herbicidal effect by foliage application, N: redroot pigweed (redroot pigweed)","Herbicidal effect by foliage application, R: persian speedwell (persian speedwell)","Herbicidal effect by foliage application, O: lambsquarters (lambsquarters)","Herbicidal effect by foliage application, F: southern crabgrass (southern crabgrass)","Herbicidal effect by foliage application, G: green foxtail (green foxtail)","Herbicidal effect by foliage application, H: barnyard grass (barnyard grass [1])","Herbicidal effect by foliage application, I: wild oat (wild oat)","Herbicidal effect by foliage application, L: windgrass (windgrass)","Herbicidal effect by foliage application, M: velvetleaf (velvetleaf)","Herbicidal effect by foliage application, J: blackgrass (blackgrass)","Herbicidal effect by foliage application, P: chickweed (chickweed)","Herbicidal effect by foliage application, K: Italian ryegrass (Italian ryegrass)",other results
CCCC(=O)Oc1c(C)nn(C)c(=O)c1-c1c(-c2ccccc2CC)sc2c(Cl)cccc12 [4-063],3 (Herbicidal rate of 40% or more and less than 70%),5 (Herbicidal rate of 90% or more (almost completely withered)),4 (Herbicidal rate of 70% or more and less than 90%),,,,,,,,,,,,,herbicidal effect on N: redroot pigweed (evaluation grade 0-5) (redroot pigweed; 320 g/ha): 3 (Herbicidal rate of 40% or more and less than 70%); herbicidal effect on R: persian speedwell (evaluation grade 0-5) (persian speedwell; 320 g/ha): 0 (Herbicidal rate of 5% or less (almost no effect)); herbicidal effect on O: lambsquarters (evaluation grade 0-5) (lambsquarters; 320 g/ha): 1 (Herbicidal rate of 5% or more and less than 20%); herbicidal effect on F: southern crabgrass (evaluation grade 0-5) (southern crabgrass; 320 g/ha): 0 (Herbicidal rate of 5% or less (almost no effect)); herbicidal effect on G: green foxtail (evaluation grade 0-5) (green foxtail; 320 g/ha): 0 (Herbicidal rate of 5% or less (almost no effect)); herbicidal effect on H: barnyard grass (evaluation grade 0-5) (barnyard grass [1]; 320 g/ha): 0 (Herbicidal rate of 5% or less (almost no effect)); herbicidal effect on I: wild oat (evaluation grade 0-5) (wild oat; 320 g/ha): 0 (Herbicidal rate of 5% or less (almost no effect)); herbicidal effect on L: windgrass (evaluation grade 0-5) (windgrass; 320 g/ha): 0 (Herbicidal rate of 5% or less (almost no effect)); herbicidal effect on M: velvetleaf (evaluation grade 0-5) (velvetleaf; 320 g/ha): 0 (Herbicidal rate of 5% or less (almost no effect)); herbicidal effect on J: blackgrass (evaluation grade 0-5) (blackgrass; 320 g/ha): 0 (Herbicidal rate of 5% or less (almost no effect)); herbicidal effect on P: chickweed (evaluation grade 0-5) (chickweed; 320 g/ha): 0 (Herbicidal rate of 5% or less (almost no effect)); herbicidal effect on K: Italian ryegrass (evaluation grade 0-5) (Italian ryegrass; 320 g/ha): 0 (Herbicidal rate of 5% or less (almost no effect))
CCCC(=O)Oc1c(C)nn(C)c(=O)c1-c1c(-c2ccccc2SCC)sc2c(Cl)cccc12 [4-091],5 (Herbicidal rate of 90% or more (almost completely withered)),5 (Herbicidal rate of 90% or more (almost completely withered)),3 (Herbicidal rate of 40% or more and less than 70%),3 (Herbicidal rate of 40% or more and less than 70%),4 (Herbicidal rate of 70% or more and less than 90%),1 (Herbicidal rate of 5% or more and less than 20%),4 (Herbicidal rate of 70% or more and less than 90%),3 (Herbicidal rate of 40% or more and less than 70%),3 (Herbicidal rate of 40% or more and less than 70%),0 (Herbicidal rate of 5% or less (almost no effect)),0 (Herbicidal rate of 5% or less (almost no effect)),2 (Herbicidal rate of 20% or more and less than 40%),0 (Herbicidal rate of 5% or less (almost no effect)),0 (Herbicidal rate of 5% or less (almost no effect)),0 (Herbicidal rate of 5% or less (almost no effect)),
CCSc1cccc(-c2sc3c(Cl)cccc3c2-c2c(O)c(C)nn(C)c2=O)c1 [4-092],3 (Herbicidal rate of 40% or more and less than 70%),5 (Herbicidal rate of 90% or more (almost completely withered)),4 (Herbicidal rate of 70% or more and less than 90%),5 (Herbicidal rate of 90% or more (almost completely withered)),5 (Herbicidal rate of 90% or more (almost completely withered)),3 (Herbicidal rate of 40% or more and less than 70%),4 (Herbicidal rate of 70% or more and less than 90%),3 (Herbicidal rate of 40% or more and less than 70%),3 (Herbicidal rate of 40% or more and less than 70%),1 (Herbicidal rate of 5% or more and less than 20%),5 (Herbicidal rate of 90% or more (almost completely withered)),3 (Herbicidal rate of 40% or more and less than 70%),0 (Herbicidal rate of 5% or less (almost no effect)),4 (Herbicidal rate of 70% or more and less than 90%),2 (Herbicidal rate of 20% or more and less than 40%),
